Measurements as given in ChEMBL document CHEMBL1152842, “Synthesis, Raman, FT-IR, NMR spectroscopic data and antimicrobial activity of mixed aza-oxo-thia macrocyclic compounds” (2009).

What was measured:
Format in all cases: functional
Candida albicans [1] = assay: Antifungal activity against Candida albicans ATCC 10231 at 10 ug after 72 hrs by disk diffusion method; conditions: ATCC 10231, 72 h, read-out: IZ
Debaryomyces hansenii [2] = assay: Antifungal activity against Debaryomyces hansenii DSM 70238 at 10 ug after 72 hrs by disk diffusion method; conditions: DSM 70238, 72 h, read-out: IZ
Rhodotorula mucilaginosa [3] = assay: Antifungal activity against Rhodotorula rubra DSM 70403 at 10 ug after 72 hrs by disk diffusion method; conditions: DSM 70403, 72 h, read-out: IZ
[4] = tested on: Hanseniaspora guilliermondii; assay: Antifungal activity against Hanseniaspora guilliermondii DSM 3432 at 10 ug after 72 hrs by disk diffusion method; conditions: DSM 3432, 72 h, read-out: IZ
Kluyveromyces marxianus [5] = assay: Antifungal activity against Kluyveromyces fragilis NRRL 2415 at 10 ug after 72 hrs by disk diffusion method; conditions: NRRL 2415, 72 h, read-out: IZ
Candida albicans [6] = assay: Antifungal activity against Candida albicans ATCC 10231 at 1 ug after 72 hrs by disk diffusion method; conditions: ATCC 10231, 72 h, read-out: IZ
Rhodotorula mucilaginosa [7] = assay: Antifungal activity against Rhodotorula rubra DSM 70403 at 1 ug after 72 hrs by disk diffusion method; conditions: DSM 70403, 72 h, read-out: IZ
Debaryomyces hansenii [8] = assay: Antifungal activity against Debaryomyces hansenii DSM 70238 at 1 ug after 72 hrs by disk diffusion method; conditions: DSM 70238, 72 h, read-out: IZ
[9] = tested on: Hanseniaspora guilliermondii; assay: Antifungal activity against Hanseniaspora guilliermondii DSM 3432 at 1 ug after 72 hrs by disk diffusion method; conditions: DSM 3432, 72 h, read-out: IZ
Kluyveromyces marxianus [10] = assay: Antifungal activity against Kluyveromyces fragilis NRRL 2415 at 1 ug after 72 hrs by disk diffusion method; conditions: NRRL 2415, 72 h, read-out: IZ

Clc1ccccc1C(c1ccccc1)(c1ccccc1)n1ccnc1 [CLOTRIMAZOLE]
zone of inhibition at 10 µg/disc (Candida albicans [1]): 18 mm | zone of inhibition at 10 µg/disc (Debaryomyces hansenii [2]): 18 mm | zone of inhibition at 10 µg/disc (Rhodotorula mucilaginosa [3]): 15 mm | zone of inhibition at 10 µg/disc [4]: 22 mm | zone of inhibition at 10 µg/disc (Kluyveromyces marxianus [5]): 16 mm

CC(=O)N1CCN(c2ccc(OCC3COC(Cn4ccnc4)(c4ccc(Cl)cc4Cl)O3)cc2)CC1 (stereo not given) [KETOCONAZOLE]
zone of inhibition at 1 µg/disc (Candida albicans [6]): 16 mm | zone of inhibition at 1 µg/disc (Rhodotorula mucilaginosa [7]): 21 mm | zone of inhibition at 1 µg/disc (Debaryomyces hansenii [8]): 14 mm | zone of inhibition at 1 µg/disc [9]: 24 mm | zone of inhibition at 1 µg/disc (Kluyveromyces marxianus [10]): 22 mm
